Data taken from ChEMBL document CHEMBL3046252, “Synthesis and herbicidal potential of substituted aurones” (2012).

Columns and labels:
Type in all cases: functional
Echinochloa crus-galli [1] = experiment: Herbicidal activity against Echinochloa crus-galli (barnyard grass) plants assessed as inhibition of seedling growth at 100 ug/ml after 65 hr by barnyard cup test; conditions: read-out: GI
[2] = test system: Brassica rapa subsp. oleifera; experiment: Herbicidal activity against Brassica rapa subsp. oleifera assessed as inhibition of root growth at 1000 ug/ml after 65 hr by rape cup test; conditions: read-out: GI
Echinochloa crus-galli [3] = experiment: Herbicidal activity against Echinochloa crus-galli (barnyard grass) plants assessed as inhibition of seedling growth at 1000 ug/ml after 65 hr by barnyard cup test; conditions: read-out: GI
[4] = test system: Brassica rapa subsp. oleifera; experiment: Herbicidal activity against Brassica rapa subsp. oleifera assessed as inhibition of root growth at 100 ug/ml after 65 hr by rape cup test; conditions: read-out: GI
[5] = test system: Brassica rapa subsp. oleifera; experiment: Herbicidal activity against Brassica rapa subsp. oleifera assessed as inhibition of root growth at 10 ug/ml after 65 hr by rape cup test; conditions: read-out: GI
Digitaria sanguinalis [6] = experiment: Herbicidal activity against Digitaria sanguinalis (hairy crabgrass) assessed as germination rate at 1000 ug/ml measured on third day post dose (reference value: 100%)
Echinochloa crus-galli [7] = experiment: Herbicidal activity against Echinochloa crus-galli (barnyard grass) plants assessed as germination rate at 1000 ug/ml measured on first day post dose (reference value: 49.1 +/- 1.6%)
Echinochloa crus-galli [8] = experiment: Herbicidal activity against Echinochloa crus-galli (barnyard grass) plants assessed as germination rate at 1000 ug/ml measured on second day post dose (reference value: 100%)
Digitaria sanguinalis [9] = experiment: Herbicidal activity against Digitaria sanguinalis (hairy crabgrass) assessed as germination rate at 1000 ug/ml measured on second day post dose (reference value: 100%)
Digitaria sanguinalis [10] = experiment: Herbicidal activity against Digitaria sanguinalis (hairy crabgrass) assessed as germination rate at 1000 ug/ml measured on first day post dose (reference value: 0%)
Paraixeris denticulata [11] = experiment: Herbicidal activity against Paraixeris denticulata assessed as germination rate at 1000 ug/ml measured on second day post dose (reference value: 76.7 +/- 0.3%)
Paraixeris denticulata [12] = experiment: Herbicidal activity against Paraixeris denticulata assessed as germination rate at 1000 ug/ml measured on fourth day post dose (reference value: 100%)
Paraixeris denticulata [13] = experiment: Herbicidal activity against Paraixeris denticulata assessed as germination rate at 1000 ug/ml measured on third day post dose (reference value: 97.4 +/- 0.6%)
Paraixeris denticulata [14] = experiment: Herbicidal activity against Paraixeris denticulata assessed as germination rate at 1000 ug/ml measured on first day post dose (reference value: 30.8 +/- 1.2%)
[15] = test system: Brassica rapa subsp. oleifera; experiment: Post-emergence herbicidal activity against Brassica rapa subsp. oleifera seedlings assessed as inhibition of plant fresh weight growth at 1500 g/ha applied through spraying under greenhouse conditions; conditions: read-out: GI
Digitaria sanguinalis [16] = experiment: Pre-emergence herbicidal activity against Digitaria sanguinalis (hairy crabgrass) assessed as inhibition of plant fresh weight growth at 1500 g/ha applied to soil through spraying under greenhouse conditions; conditions: read-out: GI
Echinochloa crus-galli [17] = experiment: Pre-emergence herbicidal activity against Echinochloa crus-galli (barnyard grass) assessed as inhibition of plant fresh weight growth at 1500 g/ha applied to soil through spraying under greenhouse conditions; conditions: read-out: GI
Amaranthus retroflexus [18] = experiment: Post-emergence herbicidal activity against Amaranthus retroflexus seedlings assessed as inhibition of plant fresh weight growth at 1500 g/ha applied through spraying under greenhouse conditions; conditions: read-out: GI
[19] = test system: Brassica rapa subsp. oleifera; experiment: Pre-emergence herbicidal activity against Brassica rapa subsp. oleifera assessed as inhibition of plant fresh weight growth at 1500 g/ha applied to soil through spraying under greenhouse conditions; conditions: read-out: GI
Amaranthus retroflexus [20] = experiment: Pre-emergence herbicidal activity against Amaranthus retroflexusassessed as inhibition of plant fresh weight growth at 1500 g/ha applied to soil through spraying under greenhouse conditions; conditions: read-out: GI
Echinochloa crus-galli [21] = experiment: Post-emergence herbicidal activity against Echinochloa crus-galli (barnyard grass) seedlings assessed as inhibition of plant fresh weight growth at 1500 g/ha applied through spraying under greenhouse conditions; conditions: read-out: GI
Digitaria sanguinalis [22] = experiment: Post-emergence herbicidal activity against Digitaria sanguinalis (hairy crabgrass) seedlings assessed as inhibition of plant fresh weight growth at 1500 g/ha applied through spraying under greenhouse conditions; conditions: read-out: GI

SMILES	inhibition of growth at 100 µg/mL (Echinochloa crus-galli [1])	inhibition of growth at 1000 µg/mL [2]	inhibition of growth at 1000 µg/mL (Echinochloa crus-galli [3])	inhibition of growth at 100 µg/mL [4]	further results
Cc1ccc(/C=C2\Oc3cc(O)cc(O)c3C2=O)cc1	5%	78.2%	44.2%	44.3%	
O=C1/C(=C/c2ccc(F)cc2)Oc2cc(O)cc(O)c21	5%	42.3%	20%	39.1%	
COc1ccc(/C=C2\Oc3cc(OC)cc(OC)c3C2=O)cc1 [4,4',6-TRIMETHOXY-AURONE]	18.6%	87.8%	62.8%	72.3%	inhibition of growth at 10 µg/mL [5]: 63.2%
COc1cc(/C=C2\Oc3cc(O)cc(O)c3C2=O)cc(OC)c1OC	5.2%	83.8%	68.7%	0%	
COc1cc(OC)c2c(c1)O/C(=C\c1cccc(OC)c1OC)C2=O	25.5%	51.4%	42.6%	34.7%	
O=C1/C(=C/c2ccccc2)Oc2cc(O)cc(O)c21	19.9%	96.5%	49.3%	50.1%	Activity (Digitaria sanguinalis [6]): 100%; Activity (Echinochloa crus-galli [7]): 15.3%; Activity (Echinochloa crus-galli [8]): 100%
CCOc1cc(OCC)c2c(c1)O/C(=C\c1ccccc1)C2=O	8%	71.3%	27.6%	37.5%	Activity (Echinochloa crus-galli [7]): 17.7%; Activity (Echinochloa crus-galli [8]): 100%
CCOc1cc(OCC)c2c(c1)O/C(=C\c1ccc(OC)cc1)C2=O	10%	17.7%	35%	0%	
COc1cc(/C=C2\Oc3cc(O)cc(O)c3C2=O)cc(OC)c1OCc1ccccc1	15.2%	75.9%	36.9%	48.8%	
COc1cc(/C=C2\Oc3cc(OC(=O)c4ccccc4)cc(OC(=O)c4ccccc4)c3C2=O)cc(OC)c1OCc1ccccc1	5%	77.1%	19.6%	47.6%	
COc1cc(OC)c2c(c1)O/C(=C\c1ccc(OCc3ccccc3)c(OC)c1)C2=O	8.4%	68%	44.4%	54%	
COc1cc2c(c(OC)c1C)C(=O)/C(=C/c1ccc(OCc3ccccc3)cc1)O2	2.3%	91.9%	40.8%	14.2%	
COc1cc(OC)c2c(c1)O/C(=C\c1ccc(F)cc1)C2=O	0%	74.2%	5%	64.2%	inhibition of growth at 10 µg/mL [5]: 50.6%
COc1cc2c(c(OC)c1C)C(=O)/C(=C/c1ccccc1)O2	15%	82.6%	33.5%	30.5%	Activity (Digitaria sanguinalis [6]): 100%; Activity (Digitaria sanguinalis [9]): 68.6%; Activity (Digitaria sanguinalis [10]): 0%; Activity (Echinochloa crus-galli [7]): 19.5%; Activity (Echinochloa crus-galli [8]): 100%
COc1cc(/C=C2\Oc3cc(O)cc(O)c3C2=O)cc(OC)c1O	5%	0%	10%	0%	
COc1ccc(/C=C2\Oc3cc(O)cc(O)c3C2=O)cc1	10%	90.8%	28.8%	63.7%	
COc1cc(OC)c2c(c1)O/C(=C\c1ccco1)C2=O	7.8%	94.9%	42.5%	75.9%	Activity (Digitaria sanguinalis [6]): 100%; Activity (Digitaria sanguinalis [9]): 35%; Activity (Digitaria sanguinalis [10]): 0%; Activity (Echinochloa crus-galli [7]): 23.7%; Activity (Echinochloa crus-galli [8]): 100%; inhibition of growth at 10 µg/mL [5]: 31.6%
COc1cc(OC)c2c(c1)O/C(=C\c1cccc(F)c1)C2=O	14.4%	82.1%	43.8%	57.8%	
COc1ccc(/C=C2\Oc3cc(OC)c(C)c(OC)c3C2=O)cc1OC	16.8%	83.8%	51.8%	40.1%	
COc1cc(OC)c2c(c1)O/C(=C\c1ccc(OC)c(OC)c1)C2=O [4,6,3',4'-TETRAMETHOXYAURONE]	0.9%	77.9%	61.3%	5.3%	Activity (Digitaria sanguinalis [6]): 100%; Activity (Paraixeris denticulata [11]): 69.6%; Activity (Digitaria sanguinalis [9]): 41.4%; Activity (Digitaria sanguinalis [10]): 0%; Activity (Echinochloa crus-galli [7]): 13%; Activity (Paraixeris denticulata [12]): 100%; Activity (Echinochloa crus-galli [8]): 100%; Activity (Paraixeris denticulata [13]): 100%; Activity (Paraixeris denticulata [14]): 20%
COc1cc(/C=C2\Oc3cc(O)cc(O)c3C2=O)ccc1OCc1ccccc1	9.7%	87.9%	38.6%	46.8%	
COc1cc(/C=C2\Oc3cc(O)cc(O)c3C2=O)ccc1O	9.5%	98.4%	23.3%	63.3%	Activity (Digitaria sanguinalis [6]): 100%; Activity (Paraixeris denticulata [11]): 82.4%; Activity (Digitaria sanguinalis [9]): 35.1%; Activity (Digitaria sanguinalis [10]): 0%; Activity (Echinochloa crus-galli [7]): 16.9%; Activity (Paraixeris denticulata [12]): 100%; Activity (Echinochloa crus-galli [8]): 100%; Activity (Paraixeris denticulata [13]): 94.9%; Activity (Paraixeris denticulata [14]): 14.3%
CC(C)(C)c1ccc(/C=C2\Oc3cc(O)cc(O)c3C2=O)cc1	1.5%	87.5%	39.6%	9.5%	
COc1cc2c(c(OC)c1C)C(=O)/C(=C/c1ccc(F)cc1)O2	0%	59%	15%	46.6%	
O=C1/C(=C/c2ccc3c(c2)OCO3)Oc2cc(O)cc(O)c21	5%	8.7%	10%	0%	
CCc1cccc(C)c1N(C(=O)CCl)C(C)COC (centres undefined) [METOLACHOR]					inhibition of growth at 1500 g/ha [15]: 100%; inhibition of growth at 1500 g/ha (Digitaria sanguinalis [16]): 100%; inhibition of growth at 1500 g/ha (Echinochloa crus-galli [17]): 100%; inhibition of growth at 1500 g/ha (Amaranthus retroflexus [18]): 66.4%; inhibition of growth at 1500 g/ha [19]: 88.3%; inhibition of growth at 1500 g/ha (Amaranthus retroflexus [20]): 100%; inhibition of growth at 1500 g/ha (Echinochloa crus-galli [21]): 54%; inhibition of growth at 1500 g/ha (Digitaria sanguinalis [22]): 46.3%
O=C1/C(=C/c2ccc(O)cc2)Oc2cc(O)cc(O)c21	15%	72.1%	57.9%	55.2%	
CN(C)c1ccc(/C=C2\Oc3cc(O)cc(O)c3C2=O)cc1	3%	78.9%	46.6%	54.2%	Activity (Digitaria sanguinalis [9]): 27.8%; Activity (Digitaria sanguinalis [10]): 0%; Activity (Echinochloa crus-galli [7]): 16.9%; Activity (Echinochloa crus-galli [8]): 100%
COc1ccc(/C=C2\Oc3cc(O)cc(O)c3C2=O)cc1OC	12.3%	82.6%	48.1%	48%	
COc1cc(/C=C2\Oc3cc(OC)c(C)c(OC)c3C2=O)ccc1OCc1ccccc1	19%	99.5%	45.1%	71.7%	Activity (Digitaria sanguinalis [6]): 100%; Activity (Paraixeris denticulata [11]): 65.5%; Activity (Digitaria sanguinalis [9]): 38.9%; Activity (Digitaria sanguinalis [10]): 0%; Activity (Echinochloa crus-galli [7]): 16.3%; Activity (Paraixeris denticulata [12]): 100%; Activity (Echinochloa crus-galli [8]): 100%; Activity (Paraixeris denticulata [13]): 91.7%; Activity (Paraixeris denticulata [14]): 12.1%; inhibition of growth at 10 µg/mL [5]: 42.6%
